Measurements from patent US20090118135A1, “METHODS AND COMPOUNDS FOR REGULATING APOPTOSIS” (The Burnham Institute, priority 2007, published 2009).

Target: T1, GST-Bfl-1 (Homo sapiens, UniProt Q16548)
T1 construct: lacking their C-terminal transmembrane domains (about the last 20 amino acids) (“ΔTM”); made in house; host or cells: XL-1 Blue E. coli, pGEX 4T-1
T1 sequence (Q16548 1-155 limits assumed): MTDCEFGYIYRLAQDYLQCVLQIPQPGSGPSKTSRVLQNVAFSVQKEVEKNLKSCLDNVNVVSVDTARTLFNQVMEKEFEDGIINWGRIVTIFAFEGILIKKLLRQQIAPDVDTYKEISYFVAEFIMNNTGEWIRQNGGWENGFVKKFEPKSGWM
Assay: Bfl-1/FITC-Bid BH3 competitive fluorescence polarization assay
Format: binding
Details: primary HTS hits, MLSCN library (PubChem SIDs), Table 5B
Method: A FPA was performed to determine the binding affinity of FITC-Bid BH3 peptide to Bcl-2 proteins. […] IC50 determinations were performed using GraphPad Prism software (GraphPad, Inc., San Diego, Calif.). FPA competition assays were performed using the same procedure described above, except that 100 nM of GST-Bfl-1 protein in a volume of 45 μl was incubated with 5 μl (50 μM) test compounds in DMSO per well for 30 min prior to addition of 50 μl (5 nM) FITC-Bid BH3 peptide. The final DMSO concentration was 5% when the reactions brought to fall volume of 100 μl. Fluorescence polarization was measured after 10 min. Compounds that reduced the fluorescence polarization by 50% were considered hits.

SMILES	% Activity [%]	FRatio
CCN1CCN(c2ccc(NC(=O)c3cccc4ncccc34)cc2)CC1 [Compound 842582]	76.3	0.21
O=C1c2ccccc2CC1Sc1nnc(-c2ccccn2)o1 (stereo not drawn) [Compound 842657]	65.7	1.17
Cc1ccc2c(c1C)NC(C(=O)O)C1CC=CC21 (stereo not drawn) [Compound 844096]	98.3	0.53
N=c1c(C(=O)NCC2CCCO2)cc2c(=O)n3ccccc3nc2n1Cc1cccnc1 (stereo not drawn) [Compound 844196]	63.4	0.93
Cc1c(NC(=O)c2cc3nc(-c4ccccc4)cc(C)n3n2)c(=O)n(-c2ccccc2)n1C [Compound 844334]	63.5	0.88
c1coc(C2Nc3cccc4cccc(c34)N2)c1 [Compound 844697]	78.1	1.08
Cc1nn2c(N)csc2nc1=O [Compound 846443]	56.4	1.35
COc1ccc(OC)c(NC(=O)CCN2CCC(C)CC2)c1 [Compound 846609]	73	0.65
COc1cccc(C(=O)NC2CC3CCCC(C2)N3CC(=O)Nc2ccccc2)c1 (stereo not drawn) [Compound 847772]	90	0.72
O=C(O)CCc1ccc(-c2cccs2)n1CCC(=O)O [Compound 848328]	74.6	0.59
Cc1cccn2c(=O)c3cc(C(=O)NCC4CCCO4)c(=N)n(Cc4cccnc4)c3nc12 (stereo not drawn) [Compound 849581]	60.6	0.89
CC(=O)C1=C(O)C(=O)N(Cc2ccccc2)C1c1ccco1 (stereo not drawn) [Compound 851207]	52.6	0.52
O=C(CSc1n[nH]c(-c2ccccc2)n1)c1ccc(O)c(O)c1 [Compound 851690]	75.1	0.43
Cc1ccc(C)n1C(Cc1ccccc1)C(=O)O (stereo not drawn) [Compound 852148]	82.9	1.37
Oc1ccc(Nc2nc(N3CCCC3)c3ccccc3n2)cc1 [Compound 852615]	96.1	0.46
COc1ccc(NC(=O)C2CCN(c3nc(C)nc4c3CCC4)CC2)cc1 [Compound 852694]	66.2	1.37
CC1CCN(c2ccc(C(=O)O)cc2N)CC1 [Compound 852908]	73.3	0.75
c1coc(-c2nn3c(-c4ccco4)nnc3s2)c1 [Compound 853208]	60.4	0.83
CCN(CC)CCc1c(C)[nH]c(C(=O)OCc2ccccc2)c1C [Compound 853427]	70.8	1
CN(C)c1ccc(NC(=O)CN2C(=O)CC(c3ccccc3)=Nc3ccccc32)cc1 [Compound 853473]	62.6	0.6
O=C1c2ccccc2C(=O)N1CC#CCN1CCN(C2CCCCC2)CC1 [Compound 856035]	56.3	0.7

SMILES	% Activity [%]	FRatio
Cc1c[nH]c2cccc(OCC(O)CNC(C)(C)C)c12 (stereo not drawn) [Compound 856249]	52.2	0.65
N#C/C(C(N)=O)=c1/ccc2c(c1)N1C3=C(CCCC3)CC3CCCCC31N=2 (stereo not drawn) [Compound 856266]	74.3	0.62
CCn1c(SC(C)C(=O)O)nc2sc3c(c2c1=O)CCC3 (stereo not drawn) [Compound 856662]	95.1	0.59
CCn1c(SCC(=O)O)nc2sc3c(c2c1=O)CCC3 [Compound 856717]	83	0.85
C=CCn1c(SCC(=O)OC)nc2sc3c(c2c1=O)CCN(C)C3 [Compound 856802]	53.2	1.23
CC(=O)C1=C(C)OC(N)=C(C#N)C1c1ccco1 (stereo not drawn) [Compound 857779]	65.4	1.13
O=C(CCN1CCc2ccccc21)c1ccc2c(c1)OCCO2 [Compound 857910]	79.4	0.24
Cc1ccc(N2CN=c3s/c(=C\c4cccnc4)c(=O)n3C2)cc1 [Compound 858221]	78.6	0.88
Cc1ccc(C)n1Cc1ccc(C(=O)O)cc1 [Compound 858431]	76.8	0.63
CSc1nnc(-c2ccco2)c(-c2ccco2)n1 [Compound 859770]	107	0.53
Cn1c(=N)c(S(=O)(=O)c2ccccc2)cc2c(=O)n3ccccc3nc21 [Compound 859963]	50.4	1.49
O=S(=O)(c1ccccc1)N(CC(O)CN1CCCCC1)c1ccccc1 (stereo not drawn) [Compound 859970]	53.9	0.98
CC(=O)Nc1ccc(OC(=O)CC2SC(=O)NC2=O)cc1 (stereo not drawn) [Compound 860139]	68.2	1.06
O=C(CSc1nnc(-c2ccco2)c(-c2ccco2)n1)Nc1ccccc1 [Compound 860234]	71.5	1.17
Cc1ccc(NC(=O)CSc2nnc(-c3ccco3)c(-c3ccco3)n2)cc1 [Compound 860242]	56.9	1.34
O=C(c1coc(=O)c(Br)c1)N1CCOCC1 [Compound 860621]	84.9	0.55
ClC1=CCC2CN(CCN3CCCCC3)CC2C1 (stereo not drawn) [Compound 860752]	67.7	0.79
COC(=O)c1[nH]c2ccc(C)cc2c1NC(=O)CCN1CCN(Cc2ccc3c(c2)OCO3)CC1 [Compound 862218]	69.7	0.81
CC1(C)CCCN(C(=O)c2coc(=O)c(Br)c2)C1 [Compound 862800]	80.8	0.65
CN(C)CCSc1nc(N)c2c3c(sc2n1)CN(C)CC3 [Compound 862887]	72.8	0.98
O=c1nc2s/c(=C\c3ccco3)c(=O)n2nc1Cc1ccc(F)cc1 [Compound 863170]	58.4	0.32

SMILES	% Activity [%]	FRatio
COC(=O)c1[nH]c2cccc(OC)c2c1NC(=O)CCN1CCC(C(N)=O)CC1 [Compound 863493]	71.7	0.76
CC(=O)c1c(COC(=O)c2ccco2)nc2ccccc2[n+]1[O-] [Compound 863818]	68.3	0.88
C=CCn1c(SCC(=O)c2ccc(O)c(O)c2)nnc1-c1ccccc1OC [Compound 863840]	54.2	0.88
COc1ccc(OC)c(N2C(=O)[C@@H]3C(c4ccccc4Cl)=NO[C@@H]3C2=O)c1 [Compound 864036]	68.5	0.89
CN1CCC2=C(C1)SC1C2C(NCc2ccco2)=Nc2nnnn21 (stereo not drawn) [Compound 864825]	96.4	1.26
COCCN1CCN2C(=NC3CC(NC(=O)NC4CCCCC4)CCC32)C1 (stereo not drawn) [Compound 865452]	79.7	0.73
O=C1NC(=O)[C@]2(Cc3ccccc3N3CCN(c4ccccc4)CC32)C(=O)N1c1ccccc1 (stereo partly drawn) [Compound 865821]	53.1	1.21
c1ccc(-c2nn3c(Cn4nnc5ccccc54)nnc3s2)nc1 [Compound 865899]	82.6	1.32
Cc1cc(Cl)ccc1OCC(=O)OC(C)C(=O)N(C)C (stereo not drawn) [Compound 867049]	53.3	0.78
Cc1ccc(S(=O)(=O)NC(=O)c2cc(C)n(CCCn3ccnc3)c2C)cc1 [Compound 3173759]	61.5	0.99
O=C(CSc1ccc(Cl)cc1)c1ccco1 [Compound 3711335]	75.2	0.83
Clc1ccc2nc(CN3CCCc4ccccc43)cn2c1 [Compound 3711377]	61.3	0.75
O=C(COC(=O)CN1C(=O)c2ccccc2C1=O)Nc1ncc(Cl)cc1Cl [Compound 3711621]	58.7	1.36
Cc1c(Cl)cnc(NC(=O)COC(=O)C(NC(=O)c2ccco2)C(C)C)c1Cl (stereo not drawn) [Compound 3711777]	108.1	0.66
Cc1ccc(S(=O)(=O)NCC(=O)OCC(=O)Nc2ncc(Cl)cc2Cl)cc1 [Compound 3711819]	63.4	0.8
Cc1ccc(-n2c(SCc3cc(=O)n4ccsc4n3)nnc2-c2cccnc2)c(C)c1 [Compound 3712302]	80.3	0.96
COc1ccccc1NCCC(=O)OCC(=O)NCc1ccco1 [Compound 3712399]	85.2	0.95
O=C(COC(=O)c1cccs1)NCc1ccco1 [Compound 3712480]	79.7	0.96
CCS(=O)(=O)N1Cc2ccccc2CC1C(=O)N1CCN(c2cccc(C)c2C)CC1 (stereo not drawn) [Compound 3712504]	54.7	0.25
Cc1cc(C)c(NC(=O)C2=CC3C(N=C4SC=CN43)S2)c(C)c1 (stereo not drawn) [Compound 3712588]	66.1	1.05
Cc1ccc(OCCSc2nnc(-c3ccncc3)n2C)cc1 [Compound 3712590]	68.9	0.91
